The subject of assay [1] is Bacillus anthracis. As to the kind of experiment: Antibiotic activity against Bacillus anthracis assessed as reduction in bacterial growth by Alamar Blue dye based CLSI broth microdilution method. Type of assay: functional.
In assay [2] the test system is Staphylococcus aureus. The assay is described as follows: Antibiotic activity against Staphylococcus aureus ATCC 13709 assessed as reduction in bacterial growth by Alamar Blue dye based CLSI broth microdilution method. Type of assay: functional.
In assay [3] the test system is Staphylococcus aureus. The assay is described as follows: Antibiotic activity against multidrug-resistant Staphylococcus aureus CAIRD116 assessed as reduction in bacterial growth by Alamar Blue dye based CLSI broth microdilution method. Format: functional, organism-based. A general note: Alamar Blue is a resazurin reagent that responds to reducing activity.
For assay [4], the system named is Bacillus subtilis. As to the kind of experiment: Antibiotic activity against Bacillus subtilis ATCC 6633 assessed as reduction in bacterial growth by Alamar Blue dye based CLSI broth microdilution method. Type of assay: functional.
In assay [5] the test system is Candida albicans. The assay is described as follows: Antibiotic activity against Candida albicans assessed as reduction in fungal growth by Alamar Blue dye based CLSI broth microdilution method. Format: functional.
The subject of assay [6] is Streptococcus pyogenes. As to the kind of experiment: Antibiotic activity against Streptococcus pyogenes assessed as reduction in bacterial growth by Alamar Blue dye based CLSI broth microdilution method. Type of assay: functional.
Assay [7] relates to Nakaseomyces glabratus. The assay is described as follows: Antibiotic activity against Candida glabrata assessed as reduction in fungal growth by Alamar Blue dye based CLSI broth microdilution method. Format: functional.
Assay [8] deals with Staphylococcus aureus. As to the kind of experiment: Antibiotic activity against multidrug-resistant Staphylococcus aureus CAIRD148 assessed as reduction in bacterial growth by Alamar Blue dye based CLSI broth microdilution method. Type of assay: functional, organism-based.
Assay [9] relates to Staphylococcus aureus. As to the kind of experiment: Antibiotic activity against multidrug-resistant Staphylococcus aureus CAIRD142 assessed as reduction in bacterial growth by Alamar Blue dye based CLSI broth microdilution method. Format: functional, organism-based.
The subject of assay [10] is Staphylococcus aureus. The assay is described as follows: Antibiotic activity against multidrug-resistant Staphylococcus aureus NE277 assessed as reduction in bacterial growth by Alamar Blue dye based CLSI broth microdilution method. Format: functional, organism-based.
Assay [11] relates to Klebsiella pneumoniae. As to the kind of experiment: Antibiotic activity against Klebsiella pneumoniae ATCC 10031 assessed as reduction in bacterial growth by Alamar Blue dye based CLSI broth microdilution method. Format: functional, organism-based.
Assay [12] has as its system Pseudomonas aeruginosa. The assay is described as follows: Antibiotic activity against Pseudomonas aeruginosa assessed as reduction in bacterial growth by Alamar Blue dye based CLSI broth microdilution method. Type of assay: functional, organism-based.
For assay [13], the system named is Escherichia coli. The assay is described as follows: Antibiotic activity against Escherichia coli ATCC 25922 assessed as reduction in bacterial growth by Alamar Blue dye based CLSI broth microdilution method. Format: functional, organism-based.

Where “and” joins values, the source holds several entries; their conditions need not be identical. Equal entries are not always repeated. Calls of active or inactive are those of the source.

For `C[C@@H]1CCCCCCCCC[C@H](OC(=O)CCC(=O)O)C(=O)/C=C/C(=O)O1`, the MIC was 16 µM and 6 µg/mL in assay [1]; 8 µM and 3 µg/mL in assay [2]; 32 µM and 12 µg/mL in [4]; 250 µM and 96 µg/mL in assay [5]; 125 µM and 48 µg/mL in [6]; 125 µM and 48 µg/mL in assay [7]. Moreover, the outcome in assay [3], in assay [8], in assay [9] and in assay [10] was Active.

Regarding `C[C@@H]1CCC(O)CCCCCC[C@H](OC(=O)CCC(=O)O)C(=O)/C=C/C(=O)O1` (some centres undefined), the minimal inhibitory concentration (MIC) was 64 µM and 26 µg/mL in assay [1]; 32 µM and 13 µg/mL in assay [2]; 125 µM and 50 µg/mL in assay [4]; > 500 µM and > 200 µg/mL in assay [5]; 250 µM and 100 µg/mL in assay [6]; > 500 µM and > 200 µg/mL in [7]. Besides, the result in assay [3], in assay [8], in assay [9] and in assay [10] was Active.

For `C[C@@H](O)CCCCCCCCC[C@H](O)[C@H]1CCC(=O)O1`, the minimal inhibitory concentration (MIC) is > 500 µM and > 143 µg/mL in [1]; 500 µM and 143 µg/mL in assay [2]; > 500 µM and > 143 µg/mL in assay [4]; > 500 µM and > 143 µg/mL in assay [5]; 16 µM and 5 µg/mL in assay [6]; > 500 µM and > 143 µg/mL in assay [7]. In addition, the outcome in assay [11], in [12] and in assay [13] was inactive.

On to `C[C@@H]1CCCCCCCCC[C@H](OC(=O)CCC(=O)O)[C@H](O)/C=C/C(=O)O1`, for which the MIC in assay [1] was > 250 µM and > 90 µg/mL; in [2], 125 µM and 45 µg/mL; in assay [4], > 250 µM and > 90 µg/mL; in [5], > 250 µM and > 90 µg/mL; in [6] it was > 250 µM and > 90 µg/mL; in [7], > 250 µM and > 90 µg/mL.

In the case of `C[C@@H]1CCCCCCCCC[C@H](OC(=O)CCC(=O)O)[C@H](O)CCC(=O)O1`, the MIC in assay [1] is > 500 µM and > 45 µg/mL; in assay [2], > 500 µM and > 45 µg/mL; in assay [4], > 500 µM and > 45 µg/mL; in assay [5], > 500 µM and > 45 µg/mL; in [6], > 500 µM and > 45 µg/mL; in assay [7], > 500 µM and > 45 µg/mL. In addition, the result in assay [11], in [12] and in [13] was inactive.

Consider `C[C@@H](O)CCCCCCCCC[C@H](OC(=O)CCC(=O)O)[C@H]1CCC(=O)O1`, for which the MIC in assay [1] was > 500 µM and 193 µg/mL; in [2], 500 µM and 193 µg/mL; in [4], 500 µM and 193 µg/mL; in [5], 125 µM and 48 µg/mL; in assay [6] it was > 500 µM and 193 µg/mL; in [7], 500 µM and 193 µg/mL. The outcome in [11], in [12] and in assay [13] was inactive.

Turning to `C[C@@H]1CCCCCCCCC[C@H](O)[C@H](OC(=O)CCC(=O)O)/C=C/C(=O)O1`, the MIC in [1] was 250 µM and > 90 µg/mL; in assay [2], 125 µM and 45 µg/mL; in assay [4], 125 µM and 45 µg/mL; in assay [5], > 250 µM and > 90 µg/mL; in [6], > 250 µM and > 90 µg/mL; in assay [7], > 250 µM and > 90 µg/mL.

On to `COC(=O)[C@]12C(=O)[C@]3(C)O[C@](C)(C=C4[C@]5(C=O)CC[C@H](OC(C)=O)C(C)(C)[C@H]5CC[C@@]41C)[C@@]2(C)C3=O`, for which the MIC in [1] is 125 µM and 62 µg/mL; in assay [2], 125 µM and 62 µg/mL; in assay [4], 250 µM and 124 µg/mL; in assay [5], > 500 µM and > 248 µg/mL; in assay [7], > 500 µM and > 248 µg/mL. Moreover, the outcome in assay [11], in [12] and in assay [13] was inactive.

For `C[C@@H]1CCCCCCCCC[C@H](O)[C@H](O)/C=C/C(=O)O1`, the MIC in assay [1] is 250 µM and > 71 µg/mL; in assay [2], 250 µM and 71 µg/mL; in assay [4], > 250 µM and > 71 µg/mL; in assay [5] it was > 250 µM and > 71 µg/mL; in assay [6], > 250 µM and > 71 µg/mL; in assay [7], > 250 µM and > 71 µg/mL.

With `C[C@@H]1CCCCCCCCCC[C@H](O)/C=C/C(=O)O1`, the MIC is 125 µM and > 67 µg/mL in assay [1]; 125 µM and 33 µg/mL in assay [2]; 125 µM and 33 µg/mL in assay [4]; > 250 µM and > 67 µg/mL in assay [5]; 250 µM and 67 µg/mL in assay [6]; > 250 µM and > 67 µg/mL in assay [7].

The MIC is the smallest concentration in the dilution series that meets the test's criterion for growth inhibition.
